Data: US8222219B2, “Glucopyranoside compound” (Mitsubishi Tanabe Pharma Corporation, priority 2003, dated 2012)
Like-named read-outs stand apart in the source and are kept apart here.

Target: T1, human SGLT2 (Homo sapiens, UniProt P31639)
T1 construct: expressed in transfected cells; host or cells: CHOK1 (CHO-K1) cells, kept under Geneticin selection
T1 sequence (P31639 1-672): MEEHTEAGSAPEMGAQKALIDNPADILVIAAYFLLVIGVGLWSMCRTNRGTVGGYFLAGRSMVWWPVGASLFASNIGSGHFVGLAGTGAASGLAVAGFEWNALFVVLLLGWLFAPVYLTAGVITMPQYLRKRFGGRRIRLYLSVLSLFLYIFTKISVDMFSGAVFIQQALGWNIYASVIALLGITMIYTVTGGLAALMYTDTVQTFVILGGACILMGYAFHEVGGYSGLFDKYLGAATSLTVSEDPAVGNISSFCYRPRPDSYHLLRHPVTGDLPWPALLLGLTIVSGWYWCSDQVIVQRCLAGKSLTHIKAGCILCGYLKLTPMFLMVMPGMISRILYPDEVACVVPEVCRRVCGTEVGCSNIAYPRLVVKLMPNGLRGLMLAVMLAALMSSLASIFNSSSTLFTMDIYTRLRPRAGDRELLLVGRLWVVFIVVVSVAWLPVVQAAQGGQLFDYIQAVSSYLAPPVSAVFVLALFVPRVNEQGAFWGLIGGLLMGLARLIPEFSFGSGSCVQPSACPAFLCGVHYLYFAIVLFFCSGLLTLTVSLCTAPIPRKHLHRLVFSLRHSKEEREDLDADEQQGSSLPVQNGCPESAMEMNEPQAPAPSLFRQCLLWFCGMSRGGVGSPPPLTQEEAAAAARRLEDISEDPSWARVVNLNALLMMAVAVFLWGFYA
Test: Assay for SGLT2 inhibition (14C-AMG uptake in CHOK1 cells expressing human SGLT2)
Format: cell-based
Procedure: 1. Assay for SGLT2 Inhibition
Compounds described in the above examples were used for the SGLT2 inhibition assay.
CHOK1 cells expressing human SGLT2 were seeded in 24-well plates at a density of 400,000 cells/well in F-12 nutrient mixture (Ham's F-12) containing 10% fetal bovine serum, 400 μg/ml Geneticin, 50 units/ml sodium penicillin G (Gibco-BRL) and 50 μg/ml streptomycin sulfate. […] Test compounds were dissolved in DMSO. The final concentration of DMSO was 0.5%. The transport reaction was initiated by addition of 50 μl [^14C]-methyl-α-D-glucopyranoside (^14C-AMG) solution (final concentration, 0.5 mM). After incubation for 2 hours at 37° C., the uptake was stopped by aspiration of the incubation mixture, the cells were washed three times with ice-cold PBS. Then, cells were solubilized with 0.3 N NaOH and aliquots were taken for determination of radioactivity by a liquid scintillation counter. Nonspecific AMG uptake was defined as that which occurred in the presence of 100 μM of phlorizin, a specific inhibitor of sodium-dependent glucose cotransporter. Specific uptake was normalized for the protein concentrations measured by the method of Bradford.

[1] = CHOK1 cells expressing human SGLT2, 14C-AMG uptake 0.5 mM, 2 hours at 37° C., read-out: IC50

Row | SMILES | IC50 [1] | IC50
1 | Cc1ccc([C@@H]2O[C@H](CO)[C@@H](O)[C@H](O)[C@H]2O)cc1Cc1ccc(-c2ccc(C#N)nc2)s1 [Example 186, 1-(β-D-glucopyranosyl)-3-(5-(2-cyano-5-pyridyl)-2-thienylmethyl)-4-methylbenzene] | 5.4 nM | –
2 | Cc1ccc([C@@H]2O[C@H](CO)[C@@H](O)[C@H](O)[C@H]2O)cc1Cc1ccc(-c2cccc(N(C)C)c2)s1 [Example 122, 1-(β-D-glucopyranosyl)-3-(5-(3-dimethylaminophenyl)-2-thienylmethyl)-4-methylbenzene] | 8.2 nM | –
3 | OC[C@H]1O[C@@H](c2ccc(Cl)c(Cc3ccc(-c4cncs4)s3)c2)[C@H](O)[C@@H](O)[C@@H]1O [Example 204] | 1.4 nM | –
4 | COc1c(Cc2ccc(-c3cccc(F)n3)s2)cc([C@@H]2O[C@H](CO)[C@@H](O)[C@H](O)[C@H]2O)c2ccccc12 [Example 268] | 2.5 nM | –
5 | NC(=O)c1ccc(-c2ccc(Cc3cc([C@@H]4O[C@H](CO)[C@@H](O)[C@H](O)[C@H]4O)ccc3Cl)s2)cn1 [Example 188, 1-(β-D-glucopyranosyl)-3-(5-(2-carbamoyl-5-pyridyl)-2-thienylmethyl)-4-chlorobenzene] | 1.6 nM | –
6 | OC[C@H]1O[C@@H](c2cc(Cc3ccc(-c4cccc(F)n4)s3)c(F)c3ccccc23)[C@H](O)[C@@H](O)[C@@H]1O [Example 255] | 6.5 nM | –
7 | COc1ccc(-c2ccc(Cc3cc([C@@H]4O[C@H](CO)[C@@H](O)[C@H](O)[C@H]4O)ccc3C)s2)cn1 [Example 209] | 3.9 nM | –
8 | Cc1ccc([C@@H]2O[C@H](CO)[C@@H](O)[C@H](O)[C@H]2O)cc1Cc1ccc(-c2cccs2)s1 [Example 211] | 1.2 nM | –
9 | CCOC(=O)c1ccc(-c2ccc(Cc3cc([C@@H]4O[C@H](CO)[C@@H](O)[C@H](O)[C@H]4O)ccc3Cl)s2)cc1 [Example 191, 1-(β-D-glucopyranosyl)-4-chloro-3-(5-(4-ethoxycarbonylphenyl)-2-thienylmethyl)benzene] | 7.7 nM | –
10 | Cc1nc(-c2ccc(Cc3cc([C@@H]4O[C@H](CO)[C@@H](O)[C@H](O)[C@H]4O)ccc3Cl)s2)cs1 [Example 252] | 1.4 nM | –
11 | NC(=O)c1ccc(-c2ccc(Cc3cc([C@@H]4O[C@H](CO)[C@@H](O)[C@H](O)[C@H]4O)ccc3Cl)s2)cc1 [Example 193, 1-(β-D-glucopyranosyl)-3-(5-(4-carbamoylphenyl)-2-thienylmethyl)-4-chlorobenzene] | 0.9 nM | –
12 | OC[C@H]1O[C@@H](c2ccc(Cl)c(Cc3ccc(-c4cccc(Cl)c4)s3)c2)[C@H](O)[C@@H](O)[C@@H]1O [Example 88] | 2.6 nM | –
13 | Cc1ccc([C@@H]2O[C@H](CO)[C@@H](O)[C@H](O)[C@H]2O)cc1Cc1ccc(-c2cscn2)s1 [Example 210] | 1 nM | –
14 | Cc1ccc([C@@H]2O[C@H](CO)[C@@H](O)[C@H](O)[C@H]2O)cc1Cc1ccc(-c2ccc3c(c2)OCO3)s1 [Example 145] | 4 nM | –
15 | CCOc1cccc(-c2ccc(Cc3cc([C@@H]4O[C@H](CO)[C@@H](O)[C@H](O)[C@H]4O)ccc3C)s2)c1 [Example 212] | 2.6 nM | –
16 | OC[C@H]1O[C@@H](c2ccc(Cl)c(Cc3ccc(-c4ccnc(F)c4)s3)c2)[C@H](O)[C@@H](O)[C@@H]1O [Example 216] | 3.3 nM | –
17 | OC[C@H]1O[C@@H](c2ccc(Cl)c(Cc3ccc(-c4ccc(F)cc4)s3)c2)[C@H](O)[C@@H](O)[C@@H]1O [Example 70] | 7 nM | –
18 | OC[C@H]1O[C@@H](c2ccc(Cl)c(Cc3ccc(-c4ccccc4F)s3)c2)[C@H](O)[C@@H](O)[C@@H]1O [Example 69] | 7.9 nM | –
19 | COc1ccc2sc(Cc3cc([C@@H]4O[C@H](CO)[C@@H](O)[C@H](O)[C@H]4O)ccc3C)cc2c1 [Example 229] | 2.7 nM | –
20 | Cc1ccc([C@@H]2O[C@H](CO)[C@@H](O)[C@H](O)[C@H]2O)cc1Cc1cc2ccc(OCCF)cc2s1 [Example 235] | 2.6 nM | –
21 | COc1c(Cc2ccc(-c3ccccc3)s2)cc([C@@H]2O[C@H](CO)[C@@H](O)[C@H](O)[C@H]2O)c2ccccc12 [Example 265, 1-(β-D-glucopyranosyl)-3-(5-phenyl-2-thienylmethyl)-4-methoxynaphthalene] | 3.4 nM | –
22 | CCOc1ccc(-c2ccc(Cc3cc([C@@H]4O[C@H](CO)[C@@H](O)[C@H](O)[C@H]4O)ccc3C)s2)cc1 [Example 232] | 4 nM | –
23 | Cc1cccc(-c2ccc(Cc3cc([C@@H]4O[C@H](CO)[C@@H](O)[C@H](O)[C@H]4O)ccc3C)s2)c1 [Example 86] | 2.8 nM | –

Row | SMILES | IC50 [1] | IC50
24 | OC[C@H]1O[C@@H](c2ccc(Cl)c(Cc3ccc(-c4ncc(F)s4)s3)c2)[C@H](O)[C@@H](O)[C@@H]1O [Example 256] | 3.1 nM | –
25 | Cc1ccc([C@@H]2O[C@H](CO)[C@@H](O)[C@H](O)[C@H]2O)cc1Cc1ccc(-c2ccc(C(F)F)cc2)s1 [Example 176, 1-(β-D-glucopyranosyl)-3-(5-(4-difluoromethylphenyl)-2-thienylmethyl)-4-methylbenzene] | 7.7 nM | –
26 | Cc1cc(-c2ccc(Cc3cc([C@@H]4O[C@H](CO)[C@@H](O)[C@H](O)[C@H]4O)ccc3C)s2)on1 [Example 246] | 6.4 nM | –
27 | OC[C@H]1O[C@@H](c2ccc(Cl)c(Cc3ccc(-c4cscn4)s3)c2)[C@H](O)[C@@H](O)[C@@H]1O [Example 207] | 0.6 nM | –
28 | Cc1csc(-c2ccc(Cc3cc([C@@H]4O[C@H](CO)[C@@H](O)[C@H](O)[C@H]4O)ccc3Cl)s2)n1 [Example 244] | 1.2 nM | –
29 | Cc1ccc([C@@H]2O[C@H](CO)[C@@H](O)[C@H](O)[C@H]2O)cc1Cc1ccc(-c2cccc(OC(F)F)c2)s1 [Example 222] | 1.8 nM | –
30 | OC[C@H]1O[C@@H](c2ccc(Cl)c(Cc3ccc(-c4cccc(F)c4)s3)c2)[C@H](O)[C@@H](O)[C@@H]1O [Example 78] | 1.7 nM | –
31 | CCOc1ccc(-c2ccc(Cc3cc([C@@H]4O[C@H](CO)[C@@H](O)[C@H](O)[C@H]4O)ccc3Cl)s2)cc1 [Example 71] | 6.6 nM | –
32 | CCOc1ccc2cc(Cc3cc([C@@H]4O[C@H](CO)[C@@H](O)[C@H](O)[C@H]4O)ccc3C)sc2c1 [Example 228] | 3.6 nM | –
33 | COc1cccc(-c2ccc(Cc3cc([C@@H]4O[C@H](CO)[C@@H](O)[C@H](O)[C@H]4O)ccc3C)s2)c1 [Example 90] | 2 nM | –
34 | COc1cccc(-c2ccc(Cc3cc([C@@H]4O[C@H](CO)[C@@H](O)[C@H](O)[C@H]4O)ccc3C)s2)n1 [Example 208] | 2.4 nM | –
35 | Cc1ccc([C@@H]2O[C@H](CO)[C@@H](O)[C@H](O)[C@H]2O)cc1Cc1ccc(-c2cccc(Cl)c2)s1 [Example 89] | 3 nM | –
36 | CCOc1ccc2sc(Cc3cc([C@@H]4O[C@H](CO)[C@@H](O)[C@H](O)[C@H]4O)ccc3C)cc2c1 [Example 231] | 3.5 nM | –
37 | Cc1ccc([C@@H]2O[C@H](CO)[C@@H](O)[C@H](O)[C@H]2O)cc1Cc1cc2cc(OCCF)ccc2s1 [Example 230] | 4 nM | –
38 | COc1c(Cc2ccc(-c3cccc(C#N)c3)s2)cc([C@@H]2O[C@H](CO)[C@@H](O)[C@H](O)[C@H]2O)c2ccccc12 [Example 267] | 1.5 nM | –
39 | Nc1ccc(-c2ccc(Cc3cc([C@@H]4O[C@H](CO)[C@@H](O)[C@H](O)[C@H]4O)ccc3Cl)s2)cc1 [Example 197, 1-(β-D-glucopyranosyl)-3-(5-(4-aminophenyl)-2-thienylmethyl)-4-chlorobenzene] | 2 nM | –
40 | Cc1ccc([C@@H]2O[C@H](CO)[C@@H](O)[C@H](O)[C@H]2O)cc1Cc1ccc(-c2ncco2)s1 [Example 241] | 1 nM | –
41 | OC[C@H]1O[C@@H](c2ccc(Cl)c(Cc3ccc(-c4ncco4)s3)c2)[C@H](O)[C@@H](O)[C@@H]1O [Example 240] | 1.2 nM | –
42 | OCc1ccc(-c2ccc(Cc3cc([C@@H]4O[C@H](CO)[C@@H](O)[C@H](O)[C@H]4O)ccc3Cl)s2)cc1 [Example 264, 1-(β-D-glucopyranosyl)-4-chloro-3-(5-(4-hydroxymethylphenyl)-2-thienylmethyl)benzene] | 1.5 nM | –
43 | Cc1ccc([C@@H]2O[C@H](CO)[C@@H](O)[C@H](O)[C@H]2O)cc1Cc1ccc(-c2ccc(F)cc2)s1 [Example 84] | – | 2.2 nM
44 | Cc1ccc([C@@H]2O[C@H](CO)[C@@H](O)[C@H](O)[C@H]2O)cc1Cc1ccc(-c2cccc(C#N)n2)s1 [Example 225] | 1.5 nM | –
45 | COc1ccc2cc(Cc3cc([C@@H]4O[C@H](CO)[C@@H](O)[C@H](O)[C@H]4O)ccc3C)sc2c1 [Example 238] | 1.6 nM | –
